Assay results as given in patent US20260250322A1, “NEW PEPTIDES AS SELECTIVE IL-23 RECEPTOR INHIBITORS” (SANOFI, priority 2023, published 2026).
Values belong to the molecule of their own block, whether it stands above or below them. Numbered stars: 1 amine (or outer) side, 2 acyl side, 3 side chain; on linkers, the order of the positions; unused ones are H or OH. Bridge positions count the residues as written; N and C are the ends. Square brackets hold non-standard residues; d marks the D form. Primed or numbered codes have the meaning given here. Peptide text beside a SMILES is read from it. Phe(4-OMe) = Yme, 4-methoxy-L-phenylalanine (O-methyl-tyrosine), COc1ccc(C[C@H](N[*:1])C(=O)[*:2])cc1; Tyr(Me) = Yme = 4-methoxy-L-phenylalanine (O-methyl-tyrosine), COc1ccc(C[C@H](N[*:1])C(=O)[*:2])cc1; Tyr(Me)″ = O-methyl-tyrosine (4-methoxy-phenylalanine), COc1ccc(C[C@H](N[*:1])C(=O)[*:2])cc1; 1Nal = N[C@@H](Cc1cccc2ccccc12)C(=O)O; 2Nal = N[C@@H](Cc1ccc2ccccc2c1)C(=O)O; Agb = N=C(N)NCC[C@H](N)C(=O)O; dOrn = NCCC[C@@H](N)C(=O)O; Thp = NC1(C(=O)O)CCOCC1; Aib = CC(C)(N)C(=O)O; Ahx = NCCCCCC(=O)O

Experiments:
human IL-23R = target: T1, human IL-23R (Homo sapiens, UniProt Q5VWK5); assay: Human ELISA IL-23/IL-23R binding inhibition; settings: human IL-23 coated, recombinant human IL-23R-Fc chimera
T1 sequence (Q5VWK5 24-355 limits assumed): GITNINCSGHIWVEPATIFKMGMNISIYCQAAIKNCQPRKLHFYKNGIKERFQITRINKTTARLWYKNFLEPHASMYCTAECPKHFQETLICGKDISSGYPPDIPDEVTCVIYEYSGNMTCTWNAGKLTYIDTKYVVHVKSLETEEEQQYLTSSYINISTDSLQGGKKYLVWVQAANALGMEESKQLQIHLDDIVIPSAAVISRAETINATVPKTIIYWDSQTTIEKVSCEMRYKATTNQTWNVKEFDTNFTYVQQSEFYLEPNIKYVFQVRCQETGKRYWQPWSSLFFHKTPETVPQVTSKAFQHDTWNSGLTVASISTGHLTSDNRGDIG
In short: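 Plates coated with human IL-23 at 1 μg/ml overnight at 4° C; serially diluted peptides added with recombinant human IL-23R-Fc at 0.1 μg/ml final, 60 min at RT. Bound receptor detected with anti-human IgG1-HRP and a fluorogenic peroxidase substrate.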

[1] = Chemical stability (relative purity loss) of peptide compounds in buffer formulations; format: physicochemical
Description: Purity of a compound batch was determined through UHPLC/MS prior to chemical stability measurement using Method A.
For stability assessment, the target concentration was 300 μM pure compound. Therefore, solutions from solid samples were prepared in the following buffer systems with a concentration of ~300 µM compound based on the previously determined % purity. The solid samples were obtained by drying down aliquots of a freshly prepared acetonitrile stock solution using a THERMO SPEEDVAC vacuum centrifuge. The dry down time was 3 hours.
The following buffer systems were applied: • Solubility buffer system A) 100 mM phosphate buffer pH 7.4. • Solubility buffer system B) 100 mM phosphate buffer pH 6.5. • Solubility buffer system C) 100 mM HCl pH 1.2.
Prepared solutions were filtered through […] pore size and filled into sterilized glass containers under laminar flow conditions.
[…] After this time course, the samples were centrifuged for 15 min at 2500 RCF. Then 1.5 μl of the undiluted supernatant were analysed with UHPLC-UV.
The chemical stability was rated through the relative loss of purity calculated by the equation:
[(purity after 0 hours at 37° C.)(purity after 24 hours at 37° C.)]/(purity after 0 hours at 37° C.)]*100%.
The purity is calculated as [(peak area peptide)/(total peak area)]*100%.
Buffer composition: 100 mM HCl pH 1.2, 100 mM phosphate buffer pH 6.5, 100 mM phosphate buffer pH 7.4

[2] = test system: IL-23 induced STAT3 signaling; assay: Inhibition of IL-23 induced STAT3 signaling in HEK-Blue IL-23 cells (SEAP reporter); format: cell-based; settings: human IL-23 0.25 ng/ml, read-out: Inhibition of IL-23 induced pSTAT3 (IC50 nM)
In short: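 HEK-Blue IL-23 cells (10,000/well) preincubated 60 min at 37 °C with serially diluted compound, then stimulated overnight with human IL-23 (0.25 ng/ml final). STAT3-driven SEAP in supernatant read with QUANTI-Blue after 45 min at room temperature, OD 620-655 nm; dose-response fitted.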

[3] = target: T2, recombinant human IL-23R-Fc chimera (human, UniProt Q5VWK5 24-353, limits assumed); assay: competition ELISA: coated human IL-23, IL-23R-Fc 0.1 ug/ml, peptide titrated
T2 construct: Recombinant reagent; also called interleukin-23 receptor; not shown: detected with goat anti-hu-IgG1-HRP antibody
T2 sequence (looked up): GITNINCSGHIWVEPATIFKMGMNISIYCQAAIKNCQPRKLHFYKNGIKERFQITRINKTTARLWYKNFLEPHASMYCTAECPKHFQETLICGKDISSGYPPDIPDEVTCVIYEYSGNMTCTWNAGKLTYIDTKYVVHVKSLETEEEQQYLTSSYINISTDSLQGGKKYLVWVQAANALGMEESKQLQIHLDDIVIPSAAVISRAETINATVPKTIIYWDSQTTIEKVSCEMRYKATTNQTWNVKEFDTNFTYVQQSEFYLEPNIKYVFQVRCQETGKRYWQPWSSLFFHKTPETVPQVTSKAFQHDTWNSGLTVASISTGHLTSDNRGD
Description: Antagonism of peptide compounds for human interleukin-23 receptor inhibitors, was determined by an ELISA assay.
A 384-well plate was coated with 50 μl/well of human IL-23 at a final concentration of 1 μg/ml and incubated overnight at 4° C. The wells were washed 3 times with 80 μl wash buffer and blocked with 80 μl blocking buffer for 60 minutes at room temperature and washed again. 20 μl of serially diluted test peptides was added to each well and subsequently 20 μl of recombinant human IL-23R-Fc chimera at final concentration of 0.1 μg/ml. The plate was incubated for 60 minutes at room temperature. After the wells were washed, bound IL-23R-Fc was detected with goat anti-hu-lgG1-HRP antibody. Signals were visualized with QuantaBlu Fluorogenic Peroxidase Substrate.

[4] = target: T3, IL-23 receptor on the surface of HEK-Blue IL-23 cells (UniProt Q5VWK5 24-629, limits assumed); assay: cell-based or functional assay
T3 sequence (looked up): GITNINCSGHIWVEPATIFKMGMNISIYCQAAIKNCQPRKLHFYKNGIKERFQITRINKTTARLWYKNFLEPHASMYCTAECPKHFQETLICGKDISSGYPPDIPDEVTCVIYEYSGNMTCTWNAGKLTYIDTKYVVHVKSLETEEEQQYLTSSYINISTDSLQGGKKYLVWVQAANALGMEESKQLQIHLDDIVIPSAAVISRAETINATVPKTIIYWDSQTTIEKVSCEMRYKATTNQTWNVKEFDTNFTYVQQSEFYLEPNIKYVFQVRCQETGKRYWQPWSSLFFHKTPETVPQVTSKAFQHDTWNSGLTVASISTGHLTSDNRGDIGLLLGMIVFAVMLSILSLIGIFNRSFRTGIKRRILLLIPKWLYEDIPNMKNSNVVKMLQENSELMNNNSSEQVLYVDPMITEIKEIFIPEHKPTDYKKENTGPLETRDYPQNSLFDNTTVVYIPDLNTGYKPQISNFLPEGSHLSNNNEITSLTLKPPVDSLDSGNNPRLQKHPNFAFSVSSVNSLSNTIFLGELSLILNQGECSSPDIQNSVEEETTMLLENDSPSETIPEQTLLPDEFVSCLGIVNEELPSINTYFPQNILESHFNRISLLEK

[5] = pH 6.5 (100 mM phosphate buffer)
[6] = pH 7.4 (100 mM phosphate buffer)

Molecule: COc1ccc(C[C@@H]2NC(=O)[C@H](CCCNC(=N)N)NC(=O)[C@H](CCC(N)=O)NC(=O)[C@H](Cc3c[nH]c4ccccc34)NC(=O)[C@H]([C@@H](C)O)NC(=O)[C@H](CC(N)=O)NC(=O)[C@H](NC(C)=O)CCCCNC(=O)C[C@@H](C(=O)N[C@@H](CC(N)=O)C(=O)N[C@@H](CC(N)=O)C(N)=O)NC(=O)C(C)(C)NC(=O)[C@H](Cc3ccc4ccccc4c3)NC2=O)cc1 [compound 3] (Ac-[dK]NTWQRY(Me)[2Nal][Aib]DNN-NH2; lactam 1-10)
IC50 (human IL-23R): 1.55 nM
Conc. [mg/ml] 0 h ([1]; pH 1.2 (100 mM HCl)): 1.5 mg/mL
Conc. [mg/ml] 24 h 37° C. ([1]; pH 1.2 (100 mM HCl)): 1.1 mg/mL
Mass Balance [%] 24 h 37° C. ([1]; pH 1.2 (100 mM HCl)): −3.4%
Relative Purity Loss [%] 24 h 37° C. ([1]; pH 1.2 (100 mM HCl)): 23.2%
Conc. [mg/ml] 0 h [1, 5]: 1.2 mg/mL
Conc. [mg/ml] 24 h 37° C. [1, 5]: 1.1 mg/mL
Mass Balance [%] 24 h 37° C. [1, 5]: −3.6%
Relative Purity Loss [%] 24 h 37° C. [1, 5]: 1.1%
Conc. [mg/ml] 0 h [1, 6]: 1.4 mg/mL
Conc. [mg/ml] 24 h 37° C. [1, 6]: 1.3 mg/mL
Mass Balance [%] 24 h 37° C. [1, 6]: −3.1%
Relative Purity Loss [%] 24 h 37° C. [1, 6]: 3.6%
IC50 [2]: 430 nM

B1: peptide compound SEQ ID NO: 16 (peptide)
peptide: Ac-[dK]NTWQR[Tyr(Me)][1Nal][Aib]ENN-NH2
modifications: lactam 1-10
SMILES: COc1ccc(C[C@@H]2NC(=O)[C@H](CCCNC(=N)N)NC(=O)[C@H](CCC(N)=O)NC(=O)[C@H](Cc3c[nH]c4ccccc34)NC(=O)[C@H]([C@@H](C)O)NC(=O)[C@H](CC(N)=O)NC(=O)[C@H](NC(C)=O)CCCCNC(=O)CC[C@@H](C(=O)N[C@@H](CC(N)=O)C(=O)N[C@@H](CC(N)=O)C(N)=O)NC(=O)C(C)(C)NC(=O)[C@H](Cc3cccc4ccccc34)NC2=O)cc1
IC50 [3]: 5.74 nM
Inhibition of IL-23 induced pSTAT3 (IC50 nM) [4]: 8010 nM

B5: peptide compound SEQ ID NO: 27 (peptide)
peptide: Ac-[dOrn]NTWQR[Tyr(Me)][2Nal][Aib]DNN-NH2
modifications: lactam 1-10
SMILES: COc1ccc(C[C@@H]2NC(=O)[C@H](CCCNC(=N)N)NC(=O)[C@H](CCC(N)=O)NC(=O)[C@H](Cc3c[nH]c4ccccc34)NC(=O)[C@H]([C@@H](C)O)NC(=O)[C@H](CC(N)=O)NC(=O)[C@H](NC(C)=O)CCCNC(=O)C[C@@H](C(=O)N[C@@H](CC(N)=O)C(=O)N[C@@H](CC(N)=O)C(N)=O)NC(=O)C(C)(C)NC(=O)[C@H](Cc3ccc4ccccc4c3)NC2=O)cc1
IC50 [3]: 19.7 nM

B6: peptide compound SEQ ID NO: 11 (peptide)
peptide: Ac-[dD]NTWQR[Tyr(Me)][1Nal][Aib]KNN-NH2
modifications: lactam 1-10
SMILES: COc1ccc(C[C@@H]2NC(=O)[C@H](CCCNC(=N)N)NC(=O)[C@H](CCC(N)=O)NC(=O)[C@H](Cc3c[nH]c4ccccc34)NC(=O)[C@H]([C@@H](C)O)NC(=O)[C@H](CC(N)=O)NC(=O)[C@H](NC(C)=O)CC(=O)NCCCC[C@@H](C(=O)N[C@@H](CC(N)=O)C(=O)N[C@@H](CC(N)=O)C(N)=O)NC(=O)C(C)(C)NC(=O)[C@H](Cc3cccc4ccccc34)NC2=O)cc1
IC50 [3]: 18.9 nM
Inhibition of IL-23 induced pSTAT3 (IC50 nM) [4]: 9280 nM

Continued by falling IC50 [3], values first:

IC50 [3]: 3.11 nM
B3: peptide compound SEQ ID NO: 40 (peptide)
peptide: [Ahx]NTWQ[Agb][Phe(4-OMe)][2Nal][Aib]ENN-NH2
modifications: lactam N-10
SMILES: COc1ccc(C[C@@H]2NC(=O)[C@H](CCNC(=N)N)NC(=O)[C@H](CCC(N)=O)NC(=O)[C@H](Cc3c[nH]c4ccccc34)NC(=O)[C@H]([C@@H](C)O)NC(=O)[C@H](CC(N)=O)NC(=O)CCCCCNC(=O)CC[C@@H](C(=O)N[C@@H](CC(N)=O)C(=O)N[C@@H](CC(N)=O)C(N)=O)NC(=O)C(C)(C)NC(=O)[C@H](Cc3ccc4ccccc4c3)NC2=O)cc1

IC50 [3]: 1.46 nM
B7: peptide compound SEQ ID NO: 39 (peptide)
peptide: Ac-[dK]NTWQ[Agb][Phe(4-OMe)][2Nal][Aib]DNN-NH2
modifications: lactam 1-10
SMILES: COc1ccc(C[C@@H]2NC(=O)[C@H](CCNC(=N)N)NC(=O)[C@H](CCC(N)=O)NC(=O)[C@H](Cc3c[nH]c4ccccc34)NC(=O)[C@H]([C@@H](C)O)NC(=O)[C@H](CC(N)=O)NC(=O)[C@H](NC(C)=O)CCCCNC(=O)C[C@@H](C(=O)N[C@@H](CC(N)=O)C(=O)N[C@@H](CC(N)=O)C(N)=O)NC(=O)C(C)(C)NC(=O)[C@H](Cc3ccc4ccccc4c3)NC2=O)cc1

IC50 [3]: 1.34 nM
B2: peptide compound SEQ ID NO: 47 (peptide)
peptide: Ac-[dK]NTWQA[Tyr(Me)″][2Nal]RDNN-NH2
modifications: lactam 1-10
SMILES: COc1ccc(C[C@@H]2NC(=O)[C@H](C)NC(=O)[C@H](CCC(N)=O)NC(=O)[C@H](Cc3c[nH]c4ccccc34)NC(=O)[C@H]([C@@H](C)O)NC(=O)[C@H](CC(N)=O)NC(=O)[C@H](NC(C)=O)CCCCNC(=O)C[C@@H](C(=O)N[C@@H](CC(N)=O)C(=O)N[C@@H](CC(N)=O)C(N)=O)NC(=O)[C@H](CCCNC(=N)N)NC(=O)[C@H](Cc3ccc4ccccc4c3)NC2=O)cc1
notes: synthetic macrolactam

IC50 [3]: 0.78 nM
B4: peptide compound SEQ ID NO: 51 (peptide)
peptide: Ac-[dK]NTWQA[Phe(4-OMe)][2Nal][Thp]DNN-NH2
modifications: lactam 1-10
SMILES: COc1ccc(C[C@@H]2NC(=O)[C@H](C)NC(=O)[C@H](CCC(N)=O)NC(=O)[C@H](Cc3c[nH]c4ccccc34)NC(=O)[C@H]([C@@H](C)O)NC(=O)[C@H](CC(N)=O)NC(=O)[C@H](NC(C)=O)CCCCNC(=O)C[C@@H](C(=O)N[C@@H](CC(N)=O)C(=O)N[C@@H](CC(N)=O)C(N)=O)NC(=O)C3(CCOCC3)NC(=O)[C@H](Cc3ccc4ccccc4c3)NC2=O)cc1
